Data on two compounds can be found in patent publication US11484543B2, “Compositions and methods for diagnosing and treating diseases and disorders associated with mutant KCNJ5” (The Rockefeller University, priority 2017, dated 2022).

For the test, the target named is T1, KCNJ3/KCNJ5^G151R (Homo sapiens, UniProt P48544, G151R).
T1 construct: GFP; expressed in transfected cells; host or cells: HEK293T (American Type Culture Collection), transient co-transfection
T1 sequence (P48544 1-419 G151R): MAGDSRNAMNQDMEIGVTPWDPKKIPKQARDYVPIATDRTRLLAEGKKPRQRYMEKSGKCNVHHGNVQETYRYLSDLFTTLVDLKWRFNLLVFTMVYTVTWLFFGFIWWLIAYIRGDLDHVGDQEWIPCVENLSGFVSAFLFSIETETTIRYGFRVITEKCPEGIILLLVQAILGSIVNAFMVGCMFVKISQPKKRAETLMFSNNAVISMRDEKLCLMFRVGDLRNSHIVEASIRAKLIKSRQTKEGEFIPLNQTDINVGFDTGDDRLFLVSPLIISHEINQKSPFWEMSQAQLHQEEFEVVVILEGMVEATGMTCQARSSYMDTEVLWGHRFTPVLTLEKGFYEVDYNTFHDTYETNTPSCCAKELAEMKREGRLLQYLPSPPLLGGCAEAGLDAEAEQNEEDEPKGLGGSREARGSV
T1 sequence (P48549 1-501 partner): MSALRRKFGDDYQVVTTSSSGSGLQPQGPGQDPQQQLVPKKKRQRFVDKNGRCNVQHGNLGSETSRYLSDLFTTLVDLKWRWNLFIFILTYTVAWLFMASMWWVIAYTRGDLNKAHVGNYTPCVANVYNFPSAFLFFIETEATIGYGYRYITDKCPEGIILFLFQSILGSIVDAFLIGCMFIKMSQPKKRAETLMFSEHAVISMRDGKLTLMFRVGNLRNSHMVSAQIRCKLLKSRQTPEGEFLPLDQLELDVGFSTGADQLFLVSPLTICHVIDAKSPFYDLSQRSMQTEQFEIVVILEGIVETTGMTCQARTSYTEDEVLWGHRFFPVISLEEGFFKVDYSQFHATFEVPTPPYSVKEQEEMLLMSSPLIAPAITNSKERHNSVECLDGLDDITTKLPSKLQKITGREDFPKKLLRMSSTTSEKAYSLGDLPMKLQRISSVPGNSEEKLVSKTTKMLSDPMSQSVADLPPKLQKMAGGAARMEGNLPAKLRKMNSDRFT
The test can be described thus: Perforated whole-cell patch clamp, KCNJ3/KCNJ5^G151R heterotetramers in HEK293T cells. In kind it is cell-based. The procedure: HEK293T cells (American Type Culture Collection) were used for transient expression of GFP-tagged KCNJ5 or KCNJ3. The cells were grown in Dulbecco's modified Eagle medium (DMEM; Invitrogen) supplemented with 10% FBS (Invitrogen) in 5% CO2 and 95% air at 37° C. Cells were grown to 50-70% confluence for transfection, and the corresponding cDNAs (Choi et al., 2011, Science 331:768-772) were simultaneously applied to the cells using TurboFect transfection reagent according to the manufacturer's protocol (Fermentas). […]
Within 24 hr after transfection, the cells were treated with trypsin-containing medium (TrypLE Express) (Gibco) for 10 minutes to detach the cells. […] Fluorescence signal (an indication of positive transfection) was detected with an intensified video imaging system including a SIT 68 camera (Long Island Industries). […] After forming a high resistance seal (>2 GΩ), the membrane capacitance was monitored until the whole-cell patch configuration was formed. The cell membrane capacitance was measured and compensated. The K/cation currents were measured from −80 mV to 20 mV with 20 mV steps by an Axon 200A patch-clamp amplifier. The currents were low-pass filtered at 1 KHz and digitized by an Axon interface (Digidata 1200) and were analyzed using the pClamp software system 9 (Axon). […]
Background: The patch-clamp technique gives a direct electrical read-out from membranes.

As to `CC[C@H]1OC(=O)[C@H](C)[C@@H](O[C@H]2C[C@@](C)(OC)[C@@H](O)[C@H](C)O2)[C@H](C)[C@@H](O[C@@H]2O[C@H](C)C[C@H](N(C)C)[C@H]2O)[C@](C)(O)C[C@@H](C)/C(=N\OCOCCOC)[C@H](C)[C@@H](O)[C@]1(C)O` [Roxithromycin, roxithromycin], the “inhibition of KCNJ3/KCNJ5^G151R currents” value (20 μM, 10 minutes after addition) is given as “almost complete inhibition”.
For “N-demethyl-N-isobutyl-8,9-anhydroerythromycin A 6,9-hemiacetal [PLUX37]”, the “inhibition of mutant KCNJ5 in electrophysiological studies” value (10 μM, heterotetramers of KCNJ3 and mutant or WT KCNJ5 (FIG. 13)) is listed as “specific inhibition of mutant KCNJ5”.
